Reference: publication PMC12120022, “Discovery and chemical optimisation of a potent, Bi-cyclic antimicrobial inhibitor of Escherichia coli PBP3” (Communications Biology, 2025)
Where a SMILES comes first, the peptide text is derived from it.

Assays:
EcPBP3 [1] = molecular target: T1, EcPBP3 (Escherichia coli, UniProt P0AD68); assay: Fluorescence polarisation competition assay with BOCILLIN-FL as tracer; format: binding; conditions: competition format, NB, non-binder (100 μM top concentration); for IC50: read-out: IC50 (nM) by fluorescence polarisation with Bocillin FL as tracer, Geometric mean (Lower 95% CI of geo. Mean; Upper 95% CI of geo. Mean, n=number of values)
T1 construct: For assays, selections and SPR a construct with residues 60–588 which has the N-terminal domain, but not the transmembrane helix, was used; made in house
Protocol: Binding of output peptides to EcPBP3 was evaluated using a fluorescence polarisation (FP) assay.
[…] 10 µL of protein (9.4 nM) was mixed with either 5 µL of peptide or 5 µL of buffer and then the assay was initiated by the addition of 10 µL of tracer (1 nM) (final volume 25 µL), in a black 384 low bind, low volume plate (Corning). The buffer was 10 mM HEPES (Sigma), 2% (v/v) glycerol (Sigma), 300 mM NaCl (Sigma), adjusted to pH 8. The plate was incubated for 1 h at 25 °C and then read in a PHERAstar FS (BMG) using with an “FP 485 520 520” optic module (excitation 485 nm, emission 520 nm). The gain was determined immediately prior to the read on a tracer-only well.
Dotmatics (Dotmatics) workflows performing the above calculations were used to process the data. Values quoted are the geometric means of at least 2 repeats.

EcPBP3 [2] = molecular target: T1, EcPBP3; assay: SPR binding assay on immobilised EcPBP3; conditions: 37 °C, kinetic fitting; NB = no binding at 2500 nM (Tables S-4, S-5) or 5000 nM (Table 1); read-out: Kd (nM) by SPR (geomean)
Protocol: Surface plasmon resonance (SPR) assays were performed using EcPBP3 immobilized on CM5 sensor chips (GE Healthcare) via amine-coupling chemistry in assay buffer (10 mM HEPES pH 8.0, 200 mM NaCl, 0.05% (v/v) surfactant P20). The chip surface was activated by injection (10 μL min^–1) of 0.4 M EDC and 0.1 M NHS (in a 1:1 ratio) with a 7 min contact time. Protein was diluted to 25 μg mL^–1 in 10 mM MOPS (pH 7.0) and injected over the activated sensor chip surface to reach immobilization of 1500-2500 response units. Excess hydroxysuccinimidyl groups on the chip surface were deactivated by injection (10 μL min^–1) of 1 M ethanolamine hydrochloride pH 8.0 with a 7 min contact time. Reference flow cells were prepared as described, but without ligand (EcPBP3 protein).
Binding analysis runs were performed at 37 °C in running buffer (10 mM HEPES pH 8.0, 200 mM NaCl, 0.05% (w/v) Tween-20, 2% (v/v) DMSO). Test compounds (and control runs of buffer only) were injected in running buffer over the EcPBP3 chip and reference flow cell, at flow rate of 50 μL min^–1 for 150 s contact time and 2400 s dissociation time. Each injection was followed by a wash with 50% (v/v) DMSO. All compounds were tested in at least two independent biological replicates unless otherwise stated.
Raw sensorgrams data were solvent-corrected, reference-subtracted and blank-buffer-subtracted (double-referencing) before kinetic and affinity analysis to account for non-specific binding and injection artifacts. Equilibrium dissociation constant (Kd) values was determined using the Biacore™ Insight Evaluation Software (version 4.0.8 or version 5.0.17) using kinetic fitting. Kd values presented are the geometric mean of at least two biological replicates.

E. coli GKCW102 (EcPore) = conditions: caMHB; biological replicates or their range
Protocol: To evaluate the engagement of EcPBP3 by a bicyclic peptide in whole cells lacking the outer membrane permeability barrier, peptides were screened in ‘hyperporinated’ E. coli strains in which a constitutively open FhuA pore (FhuAΔC/Δ4L, lacking N-terminal cork domain and external loops) was chromosomally expressed under control of an arabinose-inducible promoter.
Minimal inhibition concentration (MIC) assays were performed in accordance with CLSI standards, using cation-adjusted Mueller Hinton broth (caMHB; Sigma Aldrich) unless otherwise specified. Induction of pore expression in hyperporinated strains E. coli GKCW101 and GKCW102 was performed by addition of 0.1% (w/v) L-arabinose to cultures at OD600 ~ 0.3, with caMHB as the culture medium.

Mouse blood stability = format: in vitro ADME, CD-1 mice; conditions: CD-1, mouse, whole blood (EDTA as anticoagulant), 37 °C, SAR peptides, read-out: Blood stability (t1/2) (converted)
Protocol: Stability assays were performed using freshly collected matrices from CD-1 mice, with anticoagulant as stated per dataset. Compound stocks in DMSO were tested at 5 μM final concentration (0.5% (v/v) DMSO). Compounds were incubated in blood or plasma at 37 °C for 24 h, with sampling at 0, 1, 2, 4, 6 and 24 h. Samples were prepared via protein precipitation using organic solvent containing internal standard, and analyzed by LC-MS/MS. Compound remaining was quantified based on the ratio of analyte to internal standard, and the half-life (t1/2) was calculated from a log linear plot of % remaining versus time.

T1 sequence (P0AD68 60-588): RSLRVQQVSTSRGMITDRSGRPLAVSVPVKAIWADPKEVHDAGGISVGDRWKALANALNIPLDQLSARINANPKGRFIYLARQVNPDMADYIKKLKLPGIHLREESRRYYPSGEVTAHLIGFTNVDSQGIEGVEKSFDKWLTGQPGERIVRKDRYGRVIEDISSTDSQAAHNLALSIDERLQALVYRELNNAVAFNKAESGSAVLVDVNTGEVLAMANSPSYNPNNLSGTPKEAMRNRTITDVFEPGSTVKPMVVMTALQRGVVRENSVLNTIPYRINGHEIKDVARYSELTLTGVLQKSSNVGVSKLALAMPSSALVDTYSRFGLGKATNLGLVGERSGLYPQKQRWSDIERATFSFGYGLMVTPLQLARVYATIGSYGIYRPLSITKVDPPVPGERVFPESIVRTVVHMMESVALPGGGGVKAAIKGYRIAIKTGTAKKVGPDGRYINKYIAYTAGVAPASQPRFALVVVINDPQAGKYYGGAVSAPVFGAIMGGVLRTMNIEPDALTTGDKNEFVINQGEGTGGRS

SMILES	IC50 (EcPBP3 [1]) [nM]	half-life at 5 μM (Mouse blood stability) [h]	also measured
C[C@H](N)C(=O)N[C@H]1CSCCC(=O)N2CN3CN(C2)C(=O)CCSC[C@H](NC(=O)CNC(=O)[C@H](Cc2ccccc2)NC(=O)[C@H]([C@@H](C)O)NC(=O)[C@H](CCCNC(=N)N)NC1=O)C(=O)N[C@@H](Cc1c[nH]c2ccccc12)C(=O)N[C@@H](Cc1c[nH]c2ccccc12)C(=O)N[C@@H](CCC(=O)O)C(=O)NCC(=O)N[C@H](C(=O)N[C@@H](C)C(N)=O)CSCCC3=O [Peptide 5]	1550	–	IC50 (nM) by fluorescence polarisation with Bocillin FL as tracer, Geometric mean (Lower 95% CI of geo. Mean; Upper 95% CI of geo. Mean, n=number of values) (EcPBP3 [1]): showed binding to EcPBP3; Kd (EcPBP3 [2]): 369 nM; MIC E. coli GKCW102 (EcPore) (E. coli GKCW102 (EcPore)): limited activity
CC(C)C[C@@H]1NC(=O)[C@@H](NC(=O)[C@H](C)N)CSCCC(=O)N2CN3CN(C2)C(=O)CCSC[C@H](NC(=O)[C@H](CC(N)=O)NC(=O)[C@H](CCC(=O)O)NC1=O)C(=O)N[C@@H](Cc1ccc(O)cc1)C(=O)N[C@@H](Cc1ccc(O)cc1)C(=O)N[C@@H](C(C)C)C(=O)N1CCC[C@H]1C(=O)N[C@@H](Cc1ccc(O)cc1)C(=O)N[C@@H](Cc1ccc(O)cc1)C(=O)NCC(=O)N[C@@H](Cc1ccc(O)cc1)C(=O)N[C@@H](C)C(=O)N[C@H](C(=O)N[C@@H](C)C(N)=O)CSCCC3=O [Peptide 13] (HELM PEPTIDE1{A.C.L.E.N.C.Y.Y.V.P.Y.Y.G.Y.A.C.A.[am]}|CHEM1{[O=C(CC[*:1])N1CN(C(=O)CC[*:2])CN(C(=O)CC[*:3])C1]}$PEPTIDE1,CHEM1,2:R3-1:R1|PEPTIDE1,CHEM1,6:R3-1:R2|PEPTIDE1,CHEM1,16:R3-1:R3$$$V2.0)	3800	–	IC50 (nM) by fluorescence polarisation with Bocillin FL as tracer, Geometric mean (Lower 95% CI of geo. Mean; Upper 95% CI of geo. Mean, n=number of values) (EcPBP3 [1]): showed binding to EcPBP3
CC[C@H](C)[C@@H]1NC(=O)[C@@H](NC(=O)[C@H](C)N)CSCCC(=O)N2CN3CN(C2)C(=O)CCSC[C@H](NC(=O)[C@H](CCCNC(=N)N)NC(=O)[C@H](CCC(=O)O)NC(=O)[C@H](CCCNC(=N)N)NC1=O)C(=O)N[C@@H](Cc1c[nH]c2ccccc12)C(=O)N[C@@H](CC(=O)O)C(=O)N[C@@H](CC(C)C)C(=O)N[C@@H](CCCCN)C(=O)N[C@@H](CCC(=O)O)C(=O)N[C@@H](CC(N)=O)C(=O)N[C@@H](CC(=O)O)C(=O)N[C@@H](Cc1c[nH]c2ccccc12)C(=O)N[C@H](C(=O)N[C@@H](C)C(N)=O)CSCCC3=O [Peptide 14] (HELM PEPTIDE1{A.C.I.R.E.R.C.W.D.L.K.E.N.D.W.C.A.[am]}|CHEM1{[O=C(CC[*:1])N1CN(C(=O)CC[*:2])CN(C(=O)CC[*:3])C1]}$PEPTIDE1,CHEM1,2:R3-1:R1|PEPTIDE1,CHEM1,7:R3-1:R2|PEPTIDE1,CHEM1,16:R3-1:R3$$$V2.0)	> 100000	–	–
CC(C)C[C@@H]1NC(=O)[C@H](C(C)C)NC(=O)[C@H](C(C)C)NC(=O)[C@@H]2CCCN2C(=O)[C@H](CCCNC(=N)N)NC(=O)[C@H](C)NC(=O)[C@@H](NC(=O)[C@H](C)N)CSCCC(=O)N2CN3CN(C2)C(=O)CCSC[C@H](NC1=O)C(=O)N[C@@H](Cc1ccc(O)cc1)C(=O)N[C@@H](Cc1c[nH]c2ccccc12)C(=O)N1CCC[C@H]1C(=O)N[C@@H](CCC(=O)O)C(=O)N[C@@H](CC(=O)O)C(=O)N[C@H](C(=O)N[C@@H](C)C(N)=O)CSCCC3=O [Peptide 15] (HELM PEPTIDE1{A.C.A.R.P.V.V.L.C.Y.W.P.E.D.C.A.[am]}|CHEM1{[O=C(CC[*:1])N1CN(C(=O)CC[*:2])CN(C(=O)CC[*:3])C1]}$PEPTIDE1,CHEM1,2:R3-1:R1|PEPTIDE1,CHEM1,9:R3-1:R2|PEPTIDE1,CHEM1,15:R3-1:R3$$$V2.0)	> 100000	–	–
C[C@H](N)C(=O)N[C@H]1CSCCC(=O)N2CN3CN(C2)C(=O)CCSC[C@H](NC(=O)[C@H](CCCCN)NC(=O)[C@@H]2CCCN2C(=O)[C@H](Cc2ccccc2)NC(=O)[C@H](CO)NC1=O)C(=O)N1CCC[C@H]1C(=O)N[C@@H](Cc1c[nH]c2ccccc12)C(=O)N[C@H](C)C(=O)N[C@@H](CCC(=O)O)C(=O)NCC(=O)N[C@H](C(=O)N[C@@H](C)C(N)=O)CSCCC3=O [Peptide 69] (HELM PEPTIDE1{A.C.S.F.P.K.C.P.W.[dA].E.G.C.A.[am]}|CHEM1{[O=C(CC[*:1])N1CN(C(=O)CC[*:2])CN(C(=O)CC[*:3])C1]}$PEPTIDE1,CHEM1,2:R3-1:R1|PEPTIDE1,CHEM1,7:R3-1:R2|PEPTIDE1,CHEM1,13:R3-1:R3$$$V2.0)	–	–	Kd (EcPBP3 [2]): > 2500 nM; MIC E. coli GKCW102 (EcPore) (E. coli GKCW102 (EcPore)): > 16 µg/mL
CC(C)[C@@H]1NC(=O)[C@H](Cc2c[nH]c3ccccc23)NC(=O)[C@@H]2CCCN2C(=O)[C@@H]2CSCCC(=O)N3CN(CN(C3)C(=O)CCSC[C@H](N)C(=O)N[C@@H](CO)C(=O)N[C@@H](Cc3ccccc3)C(=O)N3CCC[C@H]3C(=O)N[C@@H](CCCCNC(=N)N)C(=O)N2)C(=O)CCSC[C@@H](C(=O)N[C@@H](C)C(N)=O)NC(=O)CNC(=O)[C@H](CCC(=O)O)NC1=O [Peptide 71] (HELM PEPTIDE1{C.S.F.P.[N=C(N)NCCCC[C@H](N[*:1])C(=O)[*:2]].C.P.W.V.E.G.C.A.[am]}|CHEM1{[O=C(CC[*:1])N1CN(C(=O)CC[*:2])CN(C(=O)CC[*:3])C1]}$PEPTIDE1,CHEM1,1:R3-1:R1|PEPTIDE1,CHEM1,6:R3-1:R2|PEPTIDE1,CHEM1,12:R3-1:R3$$$V2.0)	–	5.7	–
CC(C)[C@@H]1NC(=O)[C@H](Cc2c[nH]c3ccccc23)NC(=O)[C@@H]2CCCN2C(=O)[C@@H]2CSCCC(=O)N3CN(CN(C3)C(=O)CCSC[C@H](N)C(=O)N[C@@H](CO)C(=O)N[C@@H](Cc3ccccc3)C(=O)N3CCC[C@H]3C(=O)N[C@@H](CCCCNC(=N)N)C(=O)N2)C(=O)CCSC[C@@H](C(N)=O)NC(=O)CNC(=O)[C@H](CCC(=O)O)NC1=O [Peptide 72, CSFP[HArg]CPWVEGC] (HELM PEPTIDE1{C.S.F.P.[N=C(N)NCCCC[C@H](N[*:1])C(=O)[*:2]].C.P.W.V.E.G.C.[am]}|CHEM1{[O=C(CC[*:1])N1CN(C(=O)CC[*:2])CN(C(=O)CC[*:3])C1]}$PEPTIDE1,CHEM1,1:R3-1:R1|PEPTIDE1,CHEM1,6:R3-1:R2|PEPTIDE1,CHEM1,12:R3-1:R3$$$V2.0)	–	3	–
CC(=O)N[C@@H](C)C(=O)N[C@H]1CSCCC(=O)N2CN3CN(C2)C(=O)CCSC[C@H](NC(=O)[C@H](CCCCNC(=N)N)NC(=O)[C@@H]2CCCN2C(=O)[C@H](Cc2ccccc2)NC(=O)[C@H](CO)NC1=O)C(=O)N1CCC[C@H]1C(=O)N[C@@H](Cc1c[nH]c2ccccc12)C(=O)N[C@@H](C(C)C)C(=O)N[C@@H](CCC(=O)O)C(=O)NCC(=O)N[C@H](C(=O)N[C@@H](C)C(N)=O)CSCCC3=O [Peptide 73]	–	14.1	–
